{
  "source": "patent US10766902B2",
  "about": "“Wee-1 inhibiting pyrazolopyrimidinone compounds” (ALMAC DISCOVERY LIMITED, priority 2016, dated 2020)",
  "key": {"ABL1": {"biological_target": "ABL1 (Homo sapiens (Human), UniProt P00519)", "experiment": "SelectScreen Kinase Profiling: ABL1", "type": "biochemical", "conditions": "tested at 300-350 nM", "excerpt": "(§1) Table 4 below highlights the selectivity of a representative compound of the invention, Example 5, against a panel of 50 kinases (assessed using the Invitrogen SelectScreen® Kinase Profiling Service)."}, "RET": {"biological_target": "RET (Homo sapiens (Human), UniProt P07949)", "experiment": "SelectScreen Kinase Profiling: RET", "type": "biochemical", "conditions": "tested at 300-350 nM"}, "AKT1 (PKB alpha)": {"biological_target": "AKT1 (PKB alpha) (Homo sapiens (Human), UniProt P31749)", "experiment": "SelectScreen Kinase Profiling: AKT1 (PKB alpha)", "type": "biochemical", "conditions": "tested at 300-350 nM", "excerpt": "as §1"}, "IGF1R": {"biological_target": "IGF1R (Homo sapiens (Human), UniProt P08069)", "sequence (P08069 31-1367)": "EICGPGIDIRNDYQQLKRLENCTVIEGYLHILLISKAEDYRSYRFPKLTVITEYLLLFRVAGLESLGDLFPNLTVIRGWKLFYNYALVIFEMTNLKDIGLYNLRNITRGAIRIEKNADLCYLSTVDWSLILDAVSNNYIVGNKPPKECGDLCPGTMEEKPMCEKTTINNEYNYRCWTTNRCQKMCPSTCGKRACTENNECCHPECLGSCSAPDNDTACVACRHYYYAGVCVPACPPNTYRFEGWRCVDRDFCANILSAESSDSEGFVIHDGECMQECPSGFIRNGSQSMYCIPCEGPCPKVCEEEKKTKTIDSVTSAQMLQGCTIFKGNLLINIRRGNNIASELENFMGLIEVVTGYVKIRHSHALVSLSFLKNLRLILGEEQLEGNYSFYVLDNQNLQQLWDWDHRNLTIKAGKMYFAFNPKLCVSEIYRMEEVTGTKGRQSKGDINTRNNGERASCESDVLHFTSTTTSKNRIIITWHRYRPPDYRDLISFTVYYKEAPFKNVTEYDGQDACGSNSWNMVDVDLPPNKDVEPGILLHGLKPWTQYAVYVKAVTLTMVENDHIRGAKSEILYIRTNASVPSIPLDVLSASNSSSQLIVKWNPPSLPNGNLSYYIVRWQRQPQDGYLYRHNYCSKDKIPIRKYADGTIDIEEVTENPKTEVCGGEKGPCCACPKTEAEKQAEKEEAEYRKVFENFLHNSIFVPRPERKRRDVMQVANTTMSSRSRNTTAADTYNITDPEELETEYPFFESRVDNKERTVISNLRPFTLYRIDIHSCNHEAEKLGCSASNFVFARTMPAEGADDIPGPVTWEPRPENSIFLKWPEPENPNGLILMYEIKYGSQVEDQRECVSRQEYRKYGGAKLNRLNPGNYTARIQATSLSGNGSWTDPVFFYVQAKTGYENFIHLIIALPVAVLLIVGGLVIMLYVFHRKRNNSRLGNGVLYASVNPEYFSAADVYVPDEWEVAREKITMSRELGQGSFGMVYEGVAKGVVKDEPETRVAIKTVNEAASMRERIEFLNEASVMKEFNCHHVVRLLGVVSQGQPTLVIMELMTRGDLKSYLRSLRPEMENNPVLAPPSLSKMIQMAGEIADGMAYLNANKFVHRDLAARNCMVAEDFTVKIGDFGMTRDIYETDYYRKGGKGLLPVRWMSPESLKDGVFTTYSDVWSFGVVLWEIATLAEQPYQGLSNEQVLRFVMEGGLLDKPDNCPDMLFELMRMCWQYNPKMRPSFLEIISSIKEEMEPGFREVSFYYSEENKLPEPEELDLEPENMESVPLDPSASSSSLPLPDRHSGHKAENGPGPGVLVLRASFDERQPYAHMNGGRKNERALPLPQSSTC", "experiment": "SelectScreen Kinase Profiling: IGF1R", "type": "biochemical", "conditions": "tested at 300-350 nM", "excerpt": "as §1"}, "AURKA (Aurora A)": {"biological_target": "AURKA (Aurora A) (Homo sapiens (Human), UniProt O14965)", "sequence (O14965 whole entry)": "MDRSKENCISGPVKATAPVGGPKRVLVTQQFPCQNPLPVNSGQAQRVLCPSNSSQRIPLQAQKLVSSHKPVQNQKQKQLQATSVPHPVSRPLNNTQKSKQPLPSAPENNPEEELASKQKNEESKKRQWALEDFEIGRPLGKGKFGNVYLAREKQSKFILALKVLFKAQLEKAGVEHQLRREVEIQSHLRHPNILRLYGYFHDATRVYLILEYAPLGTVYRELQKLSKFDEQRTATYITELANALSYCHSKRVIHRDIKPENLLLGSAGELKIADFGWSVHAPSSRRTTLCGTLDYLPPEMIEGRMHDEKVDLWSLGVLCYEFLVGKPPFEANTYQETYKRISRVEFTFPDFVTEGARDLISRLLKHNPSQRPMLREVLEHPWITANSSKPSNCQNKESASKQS", "experiment": "SelectScreen Kinase Profiling: AURKA (Aurora A)", "type": "biochemical", "conditions": "tested at 300-350 nM", "excerpt": "as §1"}, "ACVR1B (ALK4)": {"biological_target": "ACVR1B (ALK4) (Homo sapiens (Human), UniProt P36896)", "experiment": "SelectScreen Kinase Profiling: ACVR1B (ALK4)", "type": "biochemical", "conditions": "tested at 300-350 nM", "excerpt": "as §1"}, "IKBKB (IKK beta)": {"biological_target": "IKBKB (IKK beta) (Homo sapiens (Human), UniProt O14920)", "experiment": "SelectScreen Kinase Profiling: IKBKB (IKK beta)", "type": "biochemical", "conditions": "tested at 300-350 nM", "excerpt": "as §1"}, "HT29 cells": {"test_system": "HT29 cells", "experiment": "Cell viability (CellTiter-Glo), HT29", "type": "cell-based", "conditions": "Homo sapiens, HT-29; cell viability after 72 hours", "experimental": "All cell lines (HT29, A427, A498, SKLU-1) were obtained from the American Type Culture Collection (ATCC), maintained in the recommended media supplemented with 10% (v/v) FBS, 1% (v/v) Penicillin/streptomycin and kept at 37° C. in a humidified atmosphere with 5% CO2. Cells were seeded in 96 wp format typically at a seeding density of 3500-5000 cells/well and treated after 24 hours with increasing concentration of compound from 0 to 100 μM in ½ log unit increments. Cell viability was assessed after 72 hours (HT29, A427) or after 6 days (SKLU-1, A498) by CellTiter-Glo® as recommended by the manufacturer's instructions (Promega). Analysis and EC50 values were derived using GraphPadPrism."}, "PDGFRB (PDGFR beta)": {"biological_target": "PDGFRB (PDGFR beta) (Homo sapiens (Human), UniProt P09619)", "sequence (P09619 33-1106)": "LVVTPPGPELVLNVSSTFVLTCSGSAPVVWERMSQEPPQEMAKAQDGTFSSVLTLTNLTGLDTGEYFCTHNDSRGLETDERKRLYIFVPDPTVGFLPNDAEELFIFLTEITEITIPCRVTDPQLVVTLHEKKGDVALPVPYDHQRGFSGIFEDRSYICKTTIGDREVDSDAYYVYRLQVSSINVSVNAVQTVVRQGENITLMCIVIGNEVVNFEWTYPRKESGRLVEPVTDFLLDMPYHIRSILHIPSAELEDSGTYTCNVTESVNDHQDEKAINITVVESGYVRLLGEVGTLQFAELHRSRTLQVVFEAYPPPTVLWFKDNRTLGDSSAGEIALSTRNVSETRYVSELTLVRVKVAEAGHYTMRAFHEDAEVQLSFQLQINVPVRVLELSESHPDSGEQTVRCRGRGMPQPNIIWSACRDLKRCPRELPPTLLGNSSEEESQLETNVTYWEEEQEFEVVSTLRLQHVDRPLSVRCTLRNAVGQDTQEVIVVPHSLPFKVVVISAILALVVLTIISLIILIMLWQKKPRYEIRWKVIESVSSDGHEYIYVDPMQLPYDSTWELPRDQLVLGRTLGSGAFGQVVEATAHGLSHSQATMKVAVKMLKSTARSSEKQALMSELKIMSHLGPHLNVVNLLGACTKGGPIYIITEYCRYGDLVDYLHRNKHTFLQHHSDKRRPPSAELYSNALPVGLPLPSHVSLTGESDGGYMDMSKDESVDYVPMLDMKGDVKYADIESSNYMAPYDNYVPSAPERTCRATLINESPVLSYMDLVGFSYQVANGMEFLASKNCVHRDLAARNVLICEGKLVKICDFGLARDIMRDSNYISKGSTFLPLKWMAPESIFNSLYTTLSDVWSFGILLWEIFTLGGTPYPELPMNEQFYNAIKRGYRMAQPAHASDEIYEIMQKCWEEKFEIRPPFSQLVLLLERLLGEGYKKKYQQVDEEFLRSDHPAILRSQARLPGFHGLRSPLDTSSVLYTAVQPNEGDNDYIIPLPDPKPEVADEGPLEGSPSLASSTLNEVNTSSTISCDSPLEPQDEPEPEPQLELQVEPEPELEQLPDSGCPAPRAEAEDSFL", "experiment": "SelectScreen Kinase Profiling: PDGFRB (PDGFR beta)", "type": "biochemical", "conditions": "tested at 300-350 nM", "excerpt": "as §1"}, "FRAP1 (mTOR)": {"biological_target": "FRAP1 (mTOR) (Homo sapiens (Human), UniProt P42345)", "experiment": "SelectScreen Kinase Profiling: FRAP1 (mTOR)", "type": "biochemical", "conditions": "tested at 300-350 nM", "excerpt": "as §1"}, "FLT3": {"biological_target": "FLT3 (Homo sapiens (Human), UniProt P36888)", "sequence (P36888 27-993)": "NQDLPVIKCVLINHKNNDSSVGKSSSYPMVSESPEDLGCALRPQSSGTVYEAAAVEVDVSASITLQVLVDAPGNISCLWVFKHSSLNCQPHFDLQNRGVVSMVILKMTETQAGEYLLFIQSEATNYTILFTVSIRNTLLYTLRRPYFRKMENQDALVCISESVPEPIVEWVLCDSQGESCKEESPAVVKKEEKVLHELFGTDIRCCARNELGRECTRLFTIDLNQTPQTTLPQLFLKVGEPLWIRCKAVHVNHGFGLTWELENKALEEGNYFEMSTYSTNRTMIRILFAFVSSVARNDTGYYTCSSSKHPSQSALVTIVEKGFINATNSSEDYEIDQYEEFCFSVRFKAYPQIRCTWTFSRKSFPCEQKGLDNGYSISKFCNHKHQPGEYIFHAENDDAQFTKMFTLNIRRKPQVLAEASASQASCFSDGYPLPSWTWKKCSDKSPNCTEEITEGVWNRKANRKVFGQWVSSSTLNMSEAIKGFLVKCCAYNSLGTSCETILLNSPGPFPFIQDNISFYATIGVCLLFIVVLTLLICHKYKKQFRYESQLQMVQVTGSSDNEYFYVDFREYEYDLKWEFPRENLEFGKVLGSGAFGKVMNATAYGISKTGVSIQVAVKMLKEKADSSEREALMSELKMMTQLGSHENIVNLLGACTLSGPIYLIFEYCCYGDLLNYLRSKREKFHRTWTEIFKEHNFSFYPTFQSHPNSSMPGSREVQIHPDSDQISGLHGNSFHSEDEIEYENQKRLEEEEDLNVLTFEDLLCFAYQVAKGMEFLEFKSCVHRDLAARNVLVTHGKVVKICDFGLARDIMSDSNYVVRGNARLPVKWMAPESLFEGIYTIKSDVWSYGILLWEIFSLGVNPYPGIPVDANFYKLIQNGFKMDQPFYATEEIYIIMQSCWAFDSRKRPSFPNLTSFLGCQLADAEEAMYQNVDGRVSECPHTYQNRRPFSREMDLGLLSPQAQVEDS", "experiment": "SelectScreen Kinase Profiling: FLT3", "type": "biochemical", "conditions": "tested at 300-350 nM", "excerpt": "as §1"}, "KDR (VEGFR2)": {"biological_target": "KDR (VEGFR2) (Homo sapiens (Human), UniProt P35968)", "sequence (P35968 20-1356)": "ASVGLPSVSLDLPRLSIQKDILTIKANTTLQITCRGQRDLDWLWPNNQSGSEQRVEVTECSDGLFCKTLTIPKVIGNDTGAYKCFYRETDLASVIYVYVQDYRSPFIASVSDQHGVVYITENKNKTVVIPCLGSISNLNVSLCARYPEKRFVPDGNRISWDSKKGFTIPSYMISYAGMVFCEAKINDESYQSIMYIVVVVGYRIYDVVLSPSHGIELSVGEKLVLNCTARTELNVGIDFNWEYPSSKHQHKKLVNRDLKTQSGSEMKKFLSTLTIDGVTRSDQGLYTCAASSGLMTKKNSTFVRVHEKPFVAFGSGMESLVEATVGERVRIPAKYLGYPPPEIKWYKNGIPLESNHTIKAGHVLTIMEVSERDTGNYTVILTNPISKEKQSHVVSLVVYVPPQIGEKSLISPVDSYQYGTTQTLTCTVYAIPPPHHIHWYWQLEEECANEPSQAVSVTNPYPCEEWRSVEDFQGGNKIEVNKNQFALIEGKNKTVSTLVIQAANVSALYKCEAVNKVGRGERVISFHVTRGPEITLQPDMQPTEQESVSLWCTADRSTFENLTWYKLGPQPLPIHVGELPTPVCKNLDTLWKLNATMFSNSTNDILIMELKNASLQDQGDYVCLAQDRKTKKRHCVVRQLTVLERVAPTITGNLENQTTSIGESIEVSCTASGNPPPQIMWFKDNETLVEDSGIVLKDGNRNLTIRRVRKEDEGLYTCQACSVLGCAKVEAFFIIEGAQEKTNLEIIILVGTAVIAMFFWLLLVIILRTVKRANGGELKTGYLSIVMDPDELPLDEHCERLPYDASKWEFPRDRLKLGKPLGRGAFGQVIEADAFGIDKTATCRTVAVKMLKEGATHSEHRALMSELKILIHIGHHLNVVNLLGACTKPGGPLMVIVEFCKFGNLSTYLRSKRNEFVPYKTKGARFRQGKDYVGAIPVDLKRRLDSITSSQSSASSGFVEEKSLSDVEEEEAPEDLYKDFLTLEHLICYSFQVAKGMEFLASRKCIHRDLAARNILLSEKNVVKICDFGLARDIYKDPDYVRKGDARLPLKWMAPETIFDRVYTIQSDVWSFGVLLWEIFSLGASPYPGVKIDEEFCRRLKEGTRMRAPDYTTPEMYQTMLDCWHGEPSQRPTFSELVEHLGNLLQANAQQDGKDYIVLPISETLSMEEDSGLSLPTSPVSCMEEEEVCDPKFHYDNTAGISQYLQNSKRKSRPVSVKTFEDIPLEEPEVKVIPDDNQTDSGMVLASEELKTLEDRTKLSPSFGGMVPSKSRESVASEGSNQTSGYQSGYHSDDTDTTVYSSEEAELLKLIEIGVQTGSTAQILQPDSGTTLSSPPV", "experiment": "SelectScreen Kinase Profiling: KDR (VEGFR2)", "type": "biochemical", "conditions": "tested at 300-350 nM", "excerpt": "as §1"}, "PLK1": {"biological_target": "PLK1 (Homo sapiens (Human), UniProt P53350)", "experiment": "SelectScreen Kinase Profiling: PLK1", "type": "biochemical", "conditions": "tested at 300-350 nM", "excerpt": "as §1"}, "LCK": {"biological_target": "LCK (Homo sapiens (Human), UniProt P06239)", "experiment": "SelectScreen Kinase Profiling: LCK", "type": "biochemical", "conditions": "tested at 300-350 nM"}, "SRC": {"biological_target": "SRC (Homo sapiens (Human), UniProt P12931)", "experiment": "SelectScreen Kinase Profiling: SRC", "type": "biochemical", "conditions": "tested at 300-350 nM", "excerpt": "as §1"}, "NEK1": {"biological_target": "NEK1 (Homo sapiens (Human), UniProt Q96PY6)", "experiment": "SelectScreen Kinase Profiling: NEK1", "type": "biochemical", "conditions": "tested at 300-350 nM", "excerpt": "as §1"}, "MAPK14 (p38 alpha)": {"biological_target": "MAPK14 (p38 alpha) (Homo sapiens (Human), UniProt Q16539)", "experiment": "SelectScreen Kinase Profiling: MAPK14 (p38 alpha)", "type": "biochemical", "conditions": "tested at 300-350 nM", "excerpt": "as §1"}, "PHKG2": {"biological_target": "PHKG2 (Homo sapiens (Human), UniProt P15735)", "experiment": "SelectScreen Kinase Profiling: PHKG2", "type": "biochemical", "conditions": "tested at 300-350 nM", "excerpt": "as §1"}},
  "data": [
    {"smiles": "C=CCn1c(=O)c2cnc(Nc3ccc(N4CCN(C)CC4)cc3)nc2n1-c1cccc(N=S(C)(C)=O)n1", "note": "[Example 5, 1-(6-{[Dimethyl(oxo)-λ^6-sulfanylidene]amino}pyridine-2-yl)-6-{[4-(4-methylpiperazin-1-yl)phenyl]amino}-2-(prop-2-en-1-yl)-1H,2H,3H-pyrazolo[3,4-d]pyrimidin-3-one]", "values": [
      {"measurement": "inhibition of ABL1", "setting": "ABL1", "value": "− (inhibition under 50% (tested at 300-350 nM))"},
      {"measurement": "inhibition of RET", "setting": "RET", "value": "− (inhibition under 50% (tested at 300-350 nM))"},
      {"measurement": "inhibition of AKT1 (PKB alpha)", "setting": "AKT1 (PKB alpha)", "value": "− (inhibition under 50% (tested at 300-350 nM))"},
      {"measurement": "inhibition of IGF1R", "setting": "IGF1R", "value": "− (inhibition under 50% (tested at 300-350 nM))"},
      {"measurement": "inhibition of AURKA (Aurora A)", "setting": "AURKA (Aurora A)", "value": "− (inhibition under 50% (tested at 300-350 nM))"},
      {"measurement": "inhibition of ACVR1B (ALK4)", "setting": "ACVR1B (ALK4)", "value": "− (inhibition under 50% (tested at 300-350 nM))"},
      {"measurement": "inhibition of IKBKB (IKK beta)", "setting": "IKBKB (IKK beta)", "value": "− (inhibition under 50% (tested at 300-350 nM))"},
      {"measurement": "EC50", "setting": "HT29 cells", "value": 33, "unit": "nM"},
      {"measurement": "inhibition of PDGFRB (PDGFR beta)", "setting": "PDGFRB (PDGFR beta)", "value": "− (inhibition under 50% (tested at 300-350 nM))"},
      {"measurement": "inhibition of FRAP1 (mTOR)", "setting": "FRAP1 (mTOR)", "value": "− (inhibition under 50% (tested at 300-350 nM))"},
      {"measurement": "inhibition of FLT3", "setting": "FLT3", "value": "− (inhibition under 50% (tested at 300-350 nM))"},
      {"measurement": "inhibition of KDR (VEGFR2)", "setting": "KDR (VEGFR2)", "value": "− (inhibition under 50% (tested at 300-350 nM))"},
      {"measurement": "inhibition of PLK1", "setting": "PLK1", "value": "− (inhibition under 50% (tested at 300-350 nM))"},
      {"measurement": "inhibition of LCK", "setting": "LCK", "value": "− (inhibition under 50% (tested at 300-350 nM))"},
      {"measurement": "inhibition of SRC", "setting": "SRC", "value": "− (inhibition under 50% (tested at 300-350 nM))"},
      {"measurement": "inhibition of NEK1", "setting": "NEK1", "value": "− (inhibition under 50% (tested at 300-350 nM))"},
      {"measurement": "inhibition of MAPK14 (p38 alpha)", "setting": "MAPK14 (p38 alpha)", "value": "− (inhibition under 50% (tested at 300-350 nM))"},
      {"measurement": "inhibition of PHKG2", "setting": "PHKG2", "value": "− (inhibition under 50% (tested at 300-350 nM))"}
    ]}
  ]
}
